This is an account of results in ChEMBL document CHEMBL1129276, “Synthesis of 2'-aminomethyl derivatives of N-(2-(phosphonomethoxy)ethyl) nucleotide analogues as potential antiviral agents” (1996).

Holding throughout (type): functional
Experiment [1] relates to MT4. Nature of the experiment: Compound was tested in vitro for Minimum inhibitory concentration required to reduce CMV(Davis) induced cytopathicity in Human MT-4 cells. A general note: Protection from cytopathic effect is a common read-out in antiviral testing.
For experiment [2], the system named is MT4. Nature of the experiment: Compound was tested in vitro for Minimum inhibitory concentration required to reduce VZV TK+(OKA) induced cytopathicity in Human MT-4 cells.
In experiment [3] the test system is MT4. Nature of the experiment: Compound was tested in vitro for Minimum inhibitory concentration required to reduce VZV TK-(YS/R) induced cytopathicity in Human MT-4 cells.
The subject of experiment [4] is MT4. The experiment in a line: Compound was tested in vitro for Minimum inhibitory concentration required to reduce VZV TK+(YS) induced cytopathicity in Human MT-4 cells.
The subject of experiment [5] is MT4. The experiment in a line: Compound was tested in vitro for Minimum inhibitory concentration required to reduce CMV(AD-169) induced cytopathicity in Human MT-4 cells.
Experiment [6] deals with HEL. The experiment in a line: Compound was tested in vitro for Minimum inhibitory concentration required to reduce CMV(AD-169) induced cytopathicity in HEL cells. The following applies: Homo sapiens.
The test system of experiment [7] is HEL. Nature of the experiment: Compound was tested in vitro for Minimum inhibitory concentration required to reduce VZV TK+(YS) induced cytopathicity in HEL cells. The settings on record: Homo sapiens.
In experiment [8] the test system is HEL. The experiment in a line: Minimum inhibitory concentration required to reduce VZV TK-(07-1) induced cytopathicity in HEL cells. The settings on record: Homo sapiens.
For experiment [9], the system named is HEL. The experiment in a line: Compound was tested in vitro for Minimum inhibitory concentration required to reduce CMV(Davis) induced cytopathicity in HEL cells. The settings on record: Homo sapiens.
In experiment [10] the test system is HEL. The experiment in a line: Compound was tested in vitro for Minimum inhibitory concentration required to reduce VZV TK-(YS/R) induced cytopathicity in HEL cells. The following applies: Homo sapiens.
Experiment [11] has as its system HEL. Nature of the experiment: Compound was tested in vitro for Minimum inhibitory concentration required to reduce VZV TK+(OKA) induced cytopathicity in HEL cells. The settings on record: Homo sapiens.
Experiment [12] concerns HEL. Nature of the experiment: Compound was tested in vitro for Minimum inhibitory concentration required to reduce CMV (AD-169) induced cytopathicity in HEL cells. The settings on record: Homo sapiens.
The next experiment has as its system C3H/3T3. The experiment in a line: Compound was tested in vitro for Minimum inhibitory concentration required to reduce MSV induced cytopathicity in murine C3H/3T3 embryo fibroblasts. The following applies: Mus musculus.
The test system of the next experiment is E6SM. The experiment in a line: Compound was tested in vitro for minimum inhibitory concentration required to reduce HSV-1(KOS) induced cytopathicity in E6SM cells. The settings on record: Homo sapiens.
The subject of experiment [13] is MT4. The experiment in a line: Minimum inhibitory concentration required to reduce VZV TK-(07-1) induced cytopathicity in Human MT-4 cells.
The subject of experiment [14] is MT4. Nature of the experiment: Compound was tested in vitro for Minimum inhibitory concentration required to reduce HSV-1 TK-(B2006) induced cytopathicity in Human MT-4 cells.
Experiment [15] relates to MT4. The experiment in a line: Compound was tested in vitro for Minimum inhibitory concentration required to reduce HSV-2(ROD) induced cytopathicity in Human MT-4 cells.
In experiment [16] the test system is MT4. The experiment in a line: Compound was tested in vitro for Minimum inhibitory concentration required to reduce HSV-1(IIIb) induced cytopathicity in Human MT-4 cells.
The test system of experiment [17] is MT4. Nature of the experiment: Compound was tested in vitro for minimum inhibitory concentration required to reduce HSV-1(KOS) induced cytopathicity in Human MT-4 cells.
The subject of experiment [18] is HEL. Nature of the experiment: Compound was tested in vitro for Minimum inhibitory concentration required to reduce VZV TK-(07-1) induced cytopathicity in HEL cells. The following applies: Homo sapiens.

Structures are written as SMILES. In brackets after ≈: the same amount, converted by molar mass. Bounds are passed on as bounds.

Turning to `NCC(Cn1cnc2c(N)ncnc21)OCP(=O)(O)O` (stereo unspecified), the MIC against MT4 [1] was 35 µg/mL (≈ 116 µM); in the experiment on MT4 [2] it was 11 µg/mL (≈ 36.4 µM); in the experiment on MT4 [3], 7 µg/mL (≈ 23.2 µM); in the experiment on MT4 [4], 7 µg/mL (≈ 23.2 µM); against MT4 [5], 15 µg/mL (≈ 49.6 µM).

As to `CN(C)CC(Cn1cnc2c(N)ncnc21)OCP(=O)(O)O` (stereo unspecified), the MIC in the experiment on HEL [6], in the experiment with HEL [7], in the experiment on HEL [8], against HEL [9], in the experiment on HEL [10] and against HEL [11] was over 20000 µg/mL throughout.

Turning to `Nc1ncnc2c1ncn2CC(CNC(=O)c1ccccc1C(=O)O)OCP(=O)(O)O` (stereo unspecified), the MIC against HEL [6], in the experiment with HEL [7], against HEL [8], in the experiment with HEL [9], against HEL [10] and in the experiment on HEL [11] was over 50000 µg/mL in each case.

As for `C[N+](C)(C)CC(Cn1cnc2c(N)nc(N)nc21)OCP(=O)(O)O` (stereo unspecified), the MIC against HEL [12] and against HEL [7] was over 50000 µg/mL throughout.

Turning to `Nc1ncnc2c1ncn2CC(CN1CCOCC1)OCP(=O)(O)O` (stereo unspecified), the MIC against HEL [6] was over 50000 µg/mL; with HEL [7], over 50000 µg/mL; against HEL [8], over 50000 µg/mL; with C3H/3T3, 25000 µg/mL (≈ 67100 µM); against E6SM, 70000 µg/mL (≈ 188000 µM); in the experiment with HEL [9] it was over 50000 µg/mL. Further, the MIC in the experiment with HEL [10] and in the experiment with HEL [11] was over 50000 µg/mL in each case.

With `Nc1nc(N)c2ncn(CC(CNC(=O)c3ccccc3C(=O)O)OCP(=O)(O)O)c2n1` (stereo unspecified), the MIC in the experiment on HEL [6], against HEL [7], with HEL [8], in the experiment on HEL [9], with HEL [10] and in the experiment on HEL [11] was over 50000 µg/mL in each case.

Turning to `Nc1ncnc2c1ncn2C[C@@H](CO)OCP(=O)(O)O`, the MIC was 0.04 µg/mL (≈ 0.132 µM) against MT4 [13]; 0.1 µg/mL (≈ 0.33 µM) in the experiment on MT4 [14]; 0.2 µg/mL (≈ 0.66 µM) with MT4 [1]; 0.03 µg/mL (≈ 0.0989 µM) against MT4 [2]; over 20 µg/mL with MT4 [15]; over 20 µg/mL in the experiment with MT4 [16]. Besides, the MIC was determined as 0.01 µg/mL (≈ 0.033 µM) against MT4 [3], 0.2 µg/mL (≈ 0.66 µM) against MT4 [17], 0.05 µg/mL (≈ 0.165 µM) against MT4 [4] and 0.15 µg/mL (≈ 0.495 µM) in the experiment on MT4 [5].

In the case of `C[N+](C)(C)CC(Cn1cnc2c(O)nc(N)nc21)OCP(=O)(O)O` (stereo unspecified), the MIC in the experiment on HEL [6], against HEL [7] and in the experiment with HEL [11] was over 50000 µg/mL each time.

Regarding `C[N+](C)(C)CC(Cn1cnc2c(N)ncnc21)OCP(=O)(O)O` (stereo unspecified), the MIC in the experiment with HEL [6], against HEL [7], against HEL [9], in the experiment with HEL [18] and against HEL [11] was over 50000 µg/mL each time.

On to `Nc1ncnc2c1ncn2CCOCP(=O)(O)O` [ADEFOVIR], for which the MIC stood at 14 µg/mL (≈ 51.2 µM) in the experiment with MT4 [13]; 20 µg/mL (≈ 73.2 µM) in the experiment on MT4 [14]; 29 µg/mL (≈ 106 µM) against MT4 [1]; 25 µg/mL (≈ 91.5 µM) against MT4 [2]; 1.5 µg/mL (≈ 5.49 µM) with MT4 [15]; 1.5 µg/mL (≈ 5.49 µM) against MT4 [16]. Besides, the MIC in the experiment with MT4 [3] was found to be 14 µg/mL (≈ 51.2 µM); against MT4 [17] it was 7 µg/mL (≈ 25.6 µM); against MT4 [4] it was 31 µg/mL (≈ 113 µM); against MT4 [5] it was 28 µg/mL (≈ 102 µM).
